What was measured:
[1] = biological target: EP4 (Homo sapiens (Human), UniProt P35408); assay: hEP4 cAMP assay (BT549 breast cancer cells, HTRF cAMP); type: cell-based; details: antagonistic activity; mean values where measured multiple times
Experimental: Plate is pre-incubated 45 minutes at room temperature. Subsequently, 2.5 microliters of PGE2 (final conc. 6 nM) are transferred into the assay plate. Plate is incubated 30 minutes at room temperature.

[2] = biological target: EP2 (Homo sapiens (Human), UniProt P43116);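 note: antagonism of PGE2-stimulated cAMP accumulation in SF295 human glioblastoma cells with endogenous EP2, cAMP read by HTRF, expressed relative to DMSO control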
Chain of EP2 (P43116 whole entry): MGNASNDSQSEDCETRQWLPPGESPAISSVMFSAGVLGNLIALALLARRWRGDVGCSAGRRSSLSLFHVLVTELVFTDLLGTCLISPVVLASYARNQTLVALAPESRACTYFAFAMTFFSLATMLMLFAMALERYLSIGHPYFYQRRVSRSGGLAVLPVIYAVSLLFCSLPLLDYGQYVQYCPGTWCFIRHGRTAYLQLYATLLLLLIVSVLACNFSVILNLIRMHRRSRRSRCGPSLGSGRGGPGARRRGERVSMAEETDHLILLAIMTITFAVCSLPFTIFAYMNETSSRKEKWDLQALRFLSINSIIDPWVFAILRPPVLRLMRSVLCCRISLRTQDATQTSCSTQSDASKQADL

Chain of EP4 (P35408 whole entry): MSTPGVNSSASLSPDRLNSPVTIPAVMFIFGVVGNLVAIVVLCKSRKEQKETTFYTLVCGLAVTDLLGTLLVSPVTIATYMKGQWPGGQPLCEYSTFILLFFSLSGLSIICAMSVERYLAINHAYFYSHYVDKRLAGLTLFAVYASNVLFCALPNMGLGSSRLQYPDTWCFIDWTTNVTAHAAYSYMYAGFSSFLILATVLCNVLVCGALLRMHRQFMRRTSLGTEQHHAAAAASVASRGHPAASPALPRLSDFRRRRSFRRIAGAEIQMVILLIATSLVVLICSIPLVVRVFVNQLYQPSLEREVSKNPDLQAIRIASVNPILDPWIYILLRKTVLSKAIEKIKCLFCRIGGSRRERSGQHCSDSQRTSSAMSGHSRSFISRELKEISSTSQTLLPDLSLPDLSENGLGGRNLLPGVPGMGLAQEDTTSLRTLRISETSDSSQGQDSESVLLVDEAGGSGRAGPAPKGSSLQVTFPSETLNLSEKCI

| Structure (SMILES) | IC50 [1] | IC50 [2] |
| --- | --- | --- |
| COc1cc(-c2cc(NCCn3c(C)cc4c(OC)cccc43)ncn2)ccc1-c1nnn[nH]1 [compound 670, [2-(4-Methoxy-2-methyl-indol-1-yl)-ethyl]-{6-[3-methoxy-4-(1H-tetrazol-5-yl)-phenyl]-pyrimidin-4-yl}-amine] | 406 nM | 8 nM |
| CCNc1cc(-c2cc(NCCn3c(C)cc4ccccc43)ncn2)ccc1-c1nnn[nH]1 [compound 671, {6-[3-Ethylamino-4-(1H-tetrazol-5-yl)-phenyl]-pyrimidin-4-yl}-[2-(2-methyl-indol-1-yl)-ethyl]-amine] | 136 nM | 2 nM |
| COc1cc(Cl)cc2c1cc(C)n2CCNc1cc(-c2ccc(-c3noc(=O)[nH]3)cc2)ncn1 [compound 679, 3-(4-{6-[2-(6-Chloro-4-methoxy-2-methyl-indol-1-yl)-ethylamino]-pyrimidin-4-yl}-phenyl)-4H-[1,2,4]oxadiazol-5-one] | 95 nM | 20 nM |
| Cc1cc(F)c(F)c2c1cc(C)n2CCNc1cc(-c2ccc(-c3noc(=O)[nH]3)cc2)ncn1 [compound 680] | 113 nM | 56 nM |
| Cc1cc2c(Cl)cc(Cl)cc2n1CCNc1cc(-c2ccc(-c3noc(=O)[nH]3)cc2)ncn1 [compound 681, 3-(4-{6-[2-(4,6-Dichloro-2-methyl-indol-1-yl)-ethylamino]-pyrimidin-4-yl}-phenyl)-4H-[1,2,4]oxadiazol-5-one] | 247 nM | 14 nM |
| Cc1cc2c(F)c(F)cc(F)c2n1CCNc1cc(-c2ccc(-c3noc(=O)[nH]3)cc2)ncn1 [compound 682, 3-(4-{6-[2-(4,5,7-Trifluoro-2-methyl-indol-1-yl)-ethylamino]-pyrimidin-4-yl}-phenyl)-4H-[1,2,4]oxadiazol-5-one] | 251 nM | 12 nM |
| COc1cc(-c2cc(NCCn3c(C)cc4c(OC)ccc(F)c43)ncn2)ccc1-c1nnn[nH]1 [compound 683, [2-(7-Fluoro-4-methoxy-2-methyl-indol-1-yl)-ethyl]-{6-[3-methoxy-4-(1H-tetrazol-5-yl)-phenyl]-pyrimidin-4-yl}-amine] | 162 nM | 6 nM |
| COc1cc(-c2cc(NCCn3c(C)cc4c(OC)ccc(Cl)c43)ncn2)ccc1-c1nnn[nH]1 [compound 684, [2-(7-Chloro-4-methoxy-2-methyl-indol-1-yl)-ethyl]-{6-[3-methoxy-4-(1H-tetrazol-5-yl)-phenyl]-pyrimidin-4-yl}-amine] | 471 nM | 36 nM |
| Cc1cc(F)cc2c1cc(C)n2CCNc1cc(-c2ccc(-c3ncno3)cc2)ncn1 [compound 685, [2-(6-Fluoro-2,4-dimethyl-indol-1-yl)-ethyl]-[6-(4-[1,2,4]oxadiazol-5-yl-phenyl)-pyrimidin-4-yl]-amine] | 109 nM | 6 nM |
| Cc1nc2cc(-c3cc(NCCn4c(C)cc5c(C)ccc(F)c54)ncn3)ccc2o1 [compound 686] | 842 nM | 239 nM |
| COc1cc(F)cc2c1cc(C)n2CCNc1cc(-c2ccc3oc(C)nc3c2)ncn1 [compound 687] | 778 nM | 91 nM |
| COc1ccc(F)c2c1cc(C)n2CCNc1cc(-c2ccc3oc(C)nc3c2)ncn1 [compound 688] | 680 nM | 80 nM |
| COc1cccc2c1cc(C)n2CCNc1cc(-c2cc(Cl)c(C(=O)O)c(OCC(C)C)c2)ncn1 [compound 691] | 177 nM | 4 nM |
| Cc1cc(F)cc2c1cc(C)n2CCNc1cc(-c2cc(Cl)c(C(=O)O)c(OCC(C)C)c2)ncn1 [compound 693] | 234 nM | 20 nM |
| Cc1cc(F)c(F)c2c1cc(C)n2CCNc1cc(-c2cc(Cl)c(C(=O)O)c(OCC(C)C)c2)ncn1 [compound 694] | 120 nM | 49 nM |
| Cc1cc2ccccc2n1CCNc1cc(-c2ccc3[nH]ccc3c2)ncn1 [compound 695, [6-(1H-Indol-5-yl)-pyrimidin-4-yl]-[2-(2-methyl-indol-1-yl)-ethyl]-amine] | 999 nM | 4 nM |
| Cc1cc(F)c(F)c2c1cc(C)n2CCNc1cc(-c2ccc3[nH]ccc3c2)ncn1 [compound 696, [2-(6,7-Difluoro-2,4-dimethyl-indol-1-yl)-ethyl]-[6-(1H-indol-5-yl)-pyrimidin-4-yl]-amine] | 131 nM | 42 nM |
| Cc1ccc(F)c2c1cc(C)n2CCNc1cc(-c2ccc3[nH]ccc3c2)ncn1 [compound 698, [2-(7-Fluoro-2,4-dimethyl-indol-1-yl)-ethyl]-[6-(1H-indol-5-yl)-pyrimidin-4-yl]-amine] | 79 nM | 21 nM |
| Cc1cc(F)c(F)c2c1cc(C)n2CCNc1cc(-c2ccc3c(ccn3C)c2)ncn1 [compound 702] | 225 nM | 165 nM |
| Cc1ccc(F)c2c1cc(C)n2CCNc1cc(-c2ccc3c(ccn3C)c2)ncn1 [compound 704, [2-(7-Fluoro-2,4-dimethyl-indol-1-yl)-ethyl]-[6-(1-methyl-1H-indol-5-yl)-pyrimidin-4-yl]-amine] | 177 nM | 47 nM |
| COc1cc(F)cc2c1cc(C)n2CCNc1cc(-c2ccc3c(ccn3C)c2)ncn1 [compound 705, [2-(6-Fluoro-4-methoxy-2-methyl-indol-1-yl)-ethyl]-[6-(1-methyl-1H-indol-5-yl)-pyrimidin-4-yl]-amine] | 80 nM | 21 nM |
| COc1cc(F)cc2c1cc(C)n2CCNc1cc(-c2ccc(C(=O)CC#N)cc2)ncn1 [compound 709, 3-(4-{6-[2-(6-Fluoro-4-methoxy-2-methyl-indol-1-yl)-ethylamino]-pyrimidin-4-yl}-phenyl)-3-oxo-propionitrile] | 535 nM | 14 nM |
| COc1ccc(F)c2c1cc(C)n2CCNc1cc(-c2ccc(C(=O)CC#N)cc2)ncn1 [compound 710, 3-(4-{6-[2-(7-Fluoro-4-methoxy-2-methyl-indol-1-yl)-ethylamino]-pyrimidin-4-yl}-phenyl)-3-oxo-propionitrile] | 373 nM | 15 nM |
| COc1cc(F)c(F)c2c1cc(C)n2CCNc1cc(-c2ccc(C(=O)CC#N)cc2)ncn1 [compound 711, 3-(4-{6-[2-(6,7-Difluoro-4-methoxy-2-methyl-indol-1-yl)-ethylamino]-pyrimidin-4-yl}-phenyl)-3-oxo-propionitrile] | 429 nM | 16 nM |
| Cc1cc(-c2ccc(-c3cc(NCCn4c(C)cc5c(C)cc(F)cc54)ncn3)cc2)on1 [compound 713] | 267 nM | 73 nM |
| Cc1cc(-c2ccc(-c3cc(NCCn4c(C)cc5c(C)ccc(F)c54)ncn3)cc2)on1 [compound 714] | 958 nM | 72 nM |

The remaining compounds from weak to strong by IC50 [1], led by results:

| IC50 [1] | IC50 [2] | Structure (SMILES) |
| --- | --- | --- |
| 77 nM | 15 nM | Cc1cc(F)cc2c1cc(C)n2CCNc1cc(-c2ccc3[nH]ccc3c2)ncn1 [compound 697, [2-(6-Fluoro-2,4-dimethyl-indol-1-yl)-ethyl]-[6-(1H-indol-5-yl)-pyrimidin-4-yl]-amine] |
| 64 nM | 7 nM | COc1cc(F)cc2c1cc(C)n2CCNc1cc(-c2cc(Cl)c(C(=O)O)c(OCC(C)C)c2)ncn1 [compound 692] |
| 63 nM | 9 nM | COc1cc(F)cc2c1cc(C)n2CCNc1cc(-c2ccc3[nH]ccc3c2)ncn1 [compound 699, [2-(6-Fluoro-4-methoxy-2-methyl-indol-1-yl)-ethyl]-[6-(1H-indol-5-yl)-pyrimidin-4-yl]-amine] |
| 57 nM | 38 nM | COc1cc(F)c(F)c2c1cc(C)n2CCNc1cc(-c2ccc3c(ccn3C)c2)ncn1 [compound 707, [2-(6,7-Difluoro-4-methoxy-2-methyl-indol-1-yl)-ethyl]-[6-(1-methyl-1H-indol-5-yl)-pyrimidin-4-yl]-amine] |
| 55 nM | 10 nM | COc1ccc(F)c2c1cc(C)n2CCNc1cc(-c2ccc3c(ccn3C)c2)ncn1 [compound 706, [2-(7-Fluoro-4-methoxy-2-methyl-indol-1-yl)-ethyl]-[6-(1-methyl-1H-indol-5-yl)-pyrimidin-4-yl]-amine] |
| 44 nM | 7 nM | COc1ccc(F)c2c1cc(C)n2CCNc1cc(-c2ccc3[nH]ccc3c2)ncn1 [compound 700, [2-(7-Fluoro-4-methoxy-2-methyl-indol-1-yl)-ethyl]-[6-(1H-indol-5-yl)-pyrimidin-4-yl]-amine] |
| 40 nM | 33 nM | COc1cc(F)c(F)c2c1cc(C)n2CCNc1cc(-c2ccc(-c3noc(=O)[nH]3)cc2)ncn1 [compound 678, 3-(4-{6-[2-(6,7-Difluoro-4-methoxy-2-methyl-indol-1-yl)-ethylamino]-pyrimidin-4-yl}-phenyl)-4H-[1,2,4]oxadiazol-5-one] |
| 35 nM | 5 nM | COc1ccc(F)c2c1cc(C)n2CCNc1cc(-c2cc(Cl)c(C(=O)O)c(OCC(C)C)c2)ncn1 [compound 690] |
| 24 nM | 15 nM | COc1cc(F)c(F)c2c1cc(C)n2CCNc1cc(-c2ccc3[nH]ccc3c2)ncn1 [compound 701, [2-(6,7-Difluoro-4-methoxy-2-methyl-indol-1-yl)-ethyl]-[6-(1H-indol-5-yl)-pyrimidin-4-yl]-amine] |
| 12 nM | 2 nM | CCCOc1cc(-c2cc(NCCn3c(C)cc4c(OC)ccc(F)c43)ncn2)sc1C(=O)O [compound 677] |
| 9 nM | 3 nM | COc1cc(F)cc2c1cc(C)n2CCNc1cc(-c2cc(OC(C)C)c(C(=O)O)s2)ncn1 [compound 676] |
| 7 nM | 4 nM | COc1ccc(F)c2c1cc(C)n2CCNc1cc(-c2cc(OC(C)C)c(C(=O)O)s2)ncn1 [compound 675] |
| 6 nM | 2 nM | CCCOc1cc(-c2cc(NCCn3c(C)cc4c(OC)cc(F)cc43)ncn2)sc1C(=O)O [compound 674] |
| 3 nM | 1 nM | CCCCOc1cc(-c2cc(NCCn3c(C)cc4c(OC)cc(F)cc43)ncn2)sc1C(=O)O [compound 672] |
| 3 nM | 2 nM | CCCCOc1cc(-c2cc(NCCn3c(C)cc4c(OC)ccc(F)c43)ncn2)sc1C(=O)O [compound 673] |
